Laboratory results from US20210186960A1, “MODULATORS OF INDOLEAMINE 2,3-DIOXYGENASE” (GLAXOSMITHKLINE INTELLECTUAL PROPERTY DEVELOPMENT LIMITED, priority 2017, published 2021).
Values joined by “and” are separate entries in the source; they are usually repeats but may differ in a detail not shown here. Identical values can stand only once. Like-named read-outs stand apart in the source and are kept apart here.

Key:
[1] = tested on: human peripheral blood mononuclear cells (PBMC); experiment: PBMC cytotoxicity assay (CellTiter-Glo); format: cell-based; conditions: pCC50, CellTiter-Glo, stimulated human PBMC, 2 days
Procedure: Compounds of the present invention were tested via high-throughput cellular assays utilizing detection of kynurenine via mass spectrometry and cytotoxicity as end-points. For the mass spectrometry and cytotoxicity assays, human peripheral blood mononuclear cells (PBMC) (PB003F; AllCells®, Alameda, Calif.) were stimulated with human interferon-γ (IFN-γ) (Sigma-Aldrich Corporation, St. Louis, Mo.) and lipopolysaccharide from Salmonella minnesota (LPS) (Invivogen, San Diego, Calif.) to induce the expression of indoleamine 2, 3-dioxygenase (IDO1). Compounds with IDO1 inhibitory properties decreased the amount of kynurenine produced by the cells via the tryptophan catabolic pathway. Cellular toxicity due to the effect of compound treatment was measured using CellTiter-Glo® reagent (CTG) (Promega Corporation, Madison, Wis.), which is based on luminescent detection of ATP, an indicator of metabolically active cells.
In preparation for the assays, test compounds were serially diluted 3-fold in
DMSO from a typical top concentration of 1 mM or 5 mM and plated at 0.5 μL in 384-well, polystyrene, clear bottom, tissue culture treated plates with lids (Greiner Bio-One, Kremsmünster, Austria) to generate 11-point dose response curves. Low control wells (0% kynurenine or 100% cytotoxicity) contained either 0.5 μL of DMSO in the presence of unstimulated (−IFN-γ/−LPS) PBMCs for the mass spectrometry assay or 0.5 μL of DMSO in the absence of cells for the cytotoxicity assay, and high control wells (100% kynurenine or 0% cytotoxicity) contained 0.5 μL of DMSO in the presence of stimulated (+IFN-γ/+LPS) PBMCs for both the mass spectrometry and cytotoxicity assays.
Frozen stocks of PBMCs were washed and recovered in RPMI 1640 medium (Thermo Fisher Scientific, Inc., Waltham, Mass.) supplemented with 10% v/v heat-inactivated fetal bovine serum (FBS) (Thermo Fisher Scientific, Inc., Waltham, Mass.), and 1× penicillin-streptomycin antibiotic solution (Thermo Fisher Scientific, Inc., Waltham, Mass.). The cells were diluted to 1,000,000 cells/mL in the supplemented RPMI 1640 medium. 50 μL of either the cell suspension, for the mass spectrometry assay, or medium alone, for the cytotoxicity assay, were added to the low control wells, on the previously prepared 384-well compound plates, resulting in 50,000 cells/well or 0 cells/well respectively. IFN- y and LPS were added to the remaining cell suspension at final concentrations of 100 ng/ml and 50 ng/ml respectively, and 50 μL of the stimulated cells were added to all remaining wells on the 384-well compound plates. The plates, with lids, were then placed in a 37 °C, 5% CO2 humidified incubator for 2 days.
Following incubation, the 384-well plates were removed from the incubator and allowed to equilibrate to room temperature for 30 minutes. For the cytotoxicity assay, CellTiter-Glo® was prepared according to the manufacturer's instructions, and 40 μL were added to each plate well. After a twenty minute incubation at room temperature, luminescence was read on an EnVision® Multilabel Reader (Perkin Elmer Inc., Waltham, Mass.). For the mass spectrometry assay, 10 μL of supernatant from each well of the compound-treated plates were added to 40 μL of acetonitrile, containing 10 μM of an internal standard for normalization, in 384-well, polypropylene, V-bottom plates (Greiner Bio-One, Kremsmunster, Austria) to extract the organic analytes. Following centrifugation at 2000 rpm for 10 minutes, 10 μL from each well of the acetonitrile extraction plates were added to 90 μL of sterile, distilled H2O in 384-well, polypropylene, V-bottom plates for analysis of kynurenine and the internal standard on the RapidFire 300 (Agilent Technologies, Santa Clara, Calif.) and 4000 QTRAP MS (SCIEX, Framingham, Mass.). MS data were integrated using Agilent Technologies' RapidFire Integrator software, and data were normalized for analysis as a ratio of kynurenine to the internal standard. […]

[2] = Rat oral PK studies of prodrugs at 5 mg/kg; format: in vivo; conditions: after PO dose of 5 mg/kg example 7 in male Wistar Han rat; analyte as labelled
Procedure: Rat oral PK studies of prodrugs at 5 mg/kg dose (solution in 100% (40 mg oleic acid+25mg Tween 80+2 mL of PBS/fresh) at 0.5 mg/mL).

[3] = Plasma PK and tissue distribution after oral dosing of prodrug EXAMPLE 7 (5 mg/kg); format: in vivo; conditions: PO 5 mg/kg EXAMPLE 7 (prodrug), analyte as labelled
Procedure: Tissue Distribution of drug intermediate C4 from oral dosing of C4 and of intermediate C4 from oral dosing of example 7 in rats
• Wistar Han rat, 185-197 g, male, N=8, purchased from Beijing Vital River Co. LTD. Qualification No.: SCXK(J) 2016-0011 11400700240027. Fasted overnight and fed 4 hr post dose. PO: 5 mg/kg (10 mL/kg) via oral gavage(N=8). Sampling at 1, 4, 8 and 24 hr , 4 time points, terminal bleeding for plasma, liver, lymph nodes and spleen collected at each time point

[4] = male Wistar Han rat, 1 hr, 5 mg/kg
[5] = male Wistar Han rat, 4 hr, 5 mg/kg

Question: With `CC(C)CN(c1ccc([C@H](C)CC(=O)O)cc1Nc1cnc(Cl)cn1)C1CCOCC1` [intermediate C4] as the compound, how does the “PBMC TOX PXC50” value [1] read?
Answer: The value was <5.

Question: What about the DNAUC0_20 [2] of the same compound?
Answer: Its DNAUC0_20 is 126.6 ng·h/mL.

Question: And the “Lymph node to plasma ratio individual” value [3, 4]?
Answer: Its value is 2.99.

Question: What about the “Spleen to plasma ratio individual” value [3, 4] of the same compound?
Answer: The value was 0.677.

Question: What about the “lymph node Concentration individual” value [3, 4] of the same compound?
Answer: Its value is 685 ng/g.

Question: And the “plasma Concentration individual” value [3, 4]?
Answer: The value was 229 ng/mL.

Question: What about the “spleen Concentration individual” value [3, 4] of the same compound?
Answer: The value was 155 ng/g.

Question: And the “Lymph node to plasma ratio individual” value [3, 5]?
Answer: Its value is 2.15.

Question: What about the “Spleen to plasma ratio individual” value [3, 5] of the same compound?
Answer: Its value is 0.260.

Question: And the “lymph node Concentration individual” value [3, 5]?
Answer: The value was 63.1 ng/g.

Question: What about the “spleen Concentration individual” value [3, 5] of the same compound?
Answer: The value was 23.1 ng/g and 7.65 ng/g.

Question: And the “spleen Concentration Mean” value ([3]; male Wistar Han rat, 8 hr)?
Answer: Its value is “BQL”.

Question: What about the “spleen Concentration individual” value ([3]; male Wistar Han rat, 8 hr) of the same compound?
Answer: The value was “BQL”.

Question: And the “lymph node Concentration individual” value ([3]; male Wistar Han rat, 8 hr, 5 mg/kg)?
Answer: Its value is 16.3 ng/g and 6.17 ng/g.

Question: What about the “liver Concentration Mean” value ([3]; male Wistar Han rat, 24 hr) of the same compound?
Answer: The value was “BQL”.

Question: And the “liver Concentration individual” value ([3]; male Wistar Han rat, 24 hr)?
Answer: Its value is “BQL”.

Question: What about the “lymph node Concentration Mean” value ([3]; male Wistar Han rat, 24 hr) of the same compound?
Answer: Its value is “BQL”.

Question: And the “lymph node Concentration individual” value ([3]; male Wistar Han rat, 24 hr)?
Answer: Its value is “BQL”.

Question: What about the “plasma Concentration Mean” value ([3]; male Wistar Han rat, 24 hr) of the same compound?
Answer: The value was “BQL”.

Question: What about the “plasma Concentration individual” value ([3]; male Wistar Han rat, 24 hr) of the same compound?
Answer: Its value is “BQL”.

Question: And the “spleen Concentration Mean” value ([3]; male Wistar Han rat, 24 hr)?
Answer: The value was “BQL”.

Question: And the “spleen Concentration individual” value ([3]; male Wistar Han rat, 24 hr)?
Answer: The value was “BQL”.

Question: What about the AUC(0-t) ([3]; lymph node, male Wistar Han rat, read-out: AUClast (lymph node)) of the same compound?
Answer: The AUC(0-t) was 1890 ng·h/mL.

Question: What about the concentration at 1 h ([3]; male, Wistar Han, rat, lymph node, po, 5 mg/kg, 1 hr, read-out: lymph node Concentration Mean) of the same compound?
Answer: Its concentration at 1 h is 807 ng/g.

Question: What about the concentration at 1 h ([3]; male, Wistar Han, rat, lymph node, po, 5 mg/kg, 1 hr, read-out: lymph node Concentration individual) of the same compound?
Answer: Its concentration at 1 h is 928 ng/g.

Question: And the concentration at 4 h ([3]; male, Wistar Han, rat, lymph node, po, 5 mg/kg, 4 hr, read-out: lymph node Concentration Mean)?
Answer: The concentration at 4 h was 73.8 ng/g.

Question: What about the concentration at 4 h ([3]; male, Wistar Han, rat, lymph node, po, 5 mg/kg, 4 hr, read-out: lymph node Concentration individual) of the same compound?
Answer: Its concentration at 4 h is 84.4 ng/g.

Question: And the concentration at 8 h ([3]; male, Wistar Han, rat, lymph node, po, 5 mg/kg, 8 hr)?
Answer: Its concentration at 8 h is 11.2 ng/g.

Question: And the Kp at 1 h ([3]; male, Wistar Han, rat, lymph node/plasma, po, 5 mg/kg, 1 hr, read-out: Lymph node to plasma ratio Mean)?
Answer: Its Kp at 1 h is 3.86.

Question: And the Kp at 1 h ([3]; male, Wistar Han, rat, lymph node/plasma, po, 5 mg/kg, 1 hr, read-out: Lymph node to plasma ratio individual)?
Answer: Its Kp at 1 h is 4.73.

Question: And the Kp at 4 h ([3]; male, Wistar Han, rat, lymph node/plasma, po, 5 mg/kg, 4 hr, read-out: Lymph node to plasma ratio Mean)?
Answer: The Kp at 4 h was 1.66.

Question: And the Kp at 4 h ([3]; male, Wistar Han, rat, lymph node/plasma, po, 5 mg/kg, 4 hr, read-out: Lymph node to plasma ratio individual)?
Answer: Its Kp at 4 h is 1.16.

Question: And the Kp at 8 h ([3]; male, Wistar Han, rat, lymph node/plasma, po, 5 mg/kg, 8 hr, read-out: Lymph node to plasma ratio Mean)?
Answer: Its Kp at 8 h is 0.994.

Question: What about the Kp at 8 h ([3]; male, Wistar Han, rat, lymph node/plasma, po, 5 mg/kg, 8 hr, read-out: Lymph node to plasma ratio individual) of the same compound?
Answer: Its Kp at 8 h is 0.994.

Question: And the Kp ([3]; male, Wistar Han, rat, lymph node/plasma, po, 5 mg/kg, read-out: AUClimphnode/AUCplasma)?
Answer: The Kp was 2.99.

Question: And the concentration at 1 h ([3]; male, Wistar Han, rat, plasma, po, 5 mg/kg, 1 hr, read-out: plasma Concentration Mean)?
Answer: Its concentration at 1 h is 213 ng/mL.

Question: And the concentration at 1 h ([3]; male, Wistar Han, rat, plasma, po, 5 mg/kg, 1 hr, read-out: plasma Concentration individual)?
Answer: The concentration at 1 h was 196 ng/mL.

Question: And the concentration at 1 h ([3]; male, Wistar Han, rat, spleen, po, 5 mg/kg, 1 hr, read-out: spleen Concentration Mean)?
Answer: The concentration at 1 h was 165 ng/g.

Question: What about the concentration at 1 h ([3]; male, Wistar Han, rat, spleen, po, 5 mg/kg, 1 hr, read-out: spleen Concentration individual) of the same compound?
Answer: The concentration at 1 h was 175 ng/g.

Question: And the concentration at 4 h ([3]; male, Wistar Han, rat, spleen, po, 5 mg/kg, 4 hr, read-out: spleen Concentration Mean)?
Answer: The concentration at 4 h was 15.4 ng/g.

Question: And the Kp at 1 h ([3]; male, Wistar Han, rat, spleen/plasma, po, 5 mg/kg, 1 hr, read-out: Spleen to plasma ratio Mean)?
Answer: Its Kp at 1 h is 0.785.

Question: And the Kp at 1 h ([3]; male, Wistar Han, rat, spleen/plasma, po, 5 mg/kg, 1 hr, read-out: Spleen to plasma ratio individual)?
Answer: The Kp at 1 h was 0.893.

Question: What about the Kp at 4 h ([3]; male, Wistar Han, rat, spleen/plasma, po, 5 mg/kg, 4 hr, read-out: Spleen to plasma ratio Mean) of the same compound?
Answer: The Kp at 4 h was 0.289.

Question: What about the Kp at 4 h ([3]; male, Wistar Han, rat, spleen/plasma, po, 5 mg/kg, 4 hr, read-out: Spleen to plasma ratio individual) of the same compound?
Answer: Its Kp at 4 h is 0.319.

Question: What about the Kp ([3]; male, Wistar Han, rat, spleen/plasma, po, 5 mg/kg, read-out: AUCspleen/AUCplasma) of the same compound?
Answer: Its Kp is 0.558.

Question: What about the AUC(0-t) ([3]; spleen, male Wistar Han rat, read-out: AUClast (spleen)) of the same compound?
Answer: The AUC(0-t) was 353 ng·h/mL.
